The assay in a line: EDTA cobalt-sequestration assay of R6 insulin hexamer disassembly, with or without glucose. Particulars: 25 mM glucose vs none, pH 7.4, large excess of EDTA, phenol-stabilized Co^2+ R6 hexamer. The assay is classed as physicochemical.

Description: Glucose-responsive rates of disassembly were investigated using a spectroscopy assay in which the visible absorption spectrum of a cobalt (Co^2+)-substituted insulin hexamer was obtained in the presence of phenol as an R6 hexamer.
This band arises front the unfilled d-shell electrons of the cobalt ion and is a specific signature of a tetrahedral coordination environment. Addition of a large excess of the chelating agent ethylene-diamine-tetra-acetic acid (EDTA) leads to progressive sequestration of the metal ion (in a colorless octahedral complex) and so provides a rapid and convenient probe of the kinetics of hexamer disassembly.
To this end, insulin analogues were made 0.6 mM in a buffer containing 50 mM Tris-HCl (pH 7.4), 50 mM phenol, 0.2 mM CoCl2, and 2 mM NaSCN in the absence of glucose or in the presence of 25 mM glucose. The sample pH was in each case 7.4, and samples were incubated overnight at room temperature prior to the studies to ensure that a conformational equilibrium was reached. Spectra (400-750 nm) were obtained to monitor tetrahedral Co^2+ coordination with its signature d-d absorption band at or near 574 nm. To determine the rate of Co^2+ release from the hexamers, metal-ion sequestration was initiated at 33° C. […] Attenuation of the 574-nm absorption band was monitored on a time scale of seconds to hours. […]

On to “wild-type human insulin: Human insulin, A chain SEQ ID NO: 2 and B chain SEQ ID NO: 3”, for which the “difference in rate of hexamer disassembly (loss of R-state-specific d-d band) in presence versus absence of glucose” value is recorded as “No difference was observed”. In addition, the “difference in rate of hexamer disassembly (loss of R-state-specific d-d band) in presence versus absence of glucose” value (listed as Wild-type insulin) is “the same rate of loss”.

For the origin of these results see patent publication US10584156B2, “Insulin analogues with a glucose-regulated conformational switch” (CASE WESTERN RESERVE UNIVERSITY, priority 2015, dated 2020).
